Data set [1] in a line: Metabolic (microsomal) stability assay, mouse liver microsomes (MLM). Type of data set: in vitro ADME. The following applies: 1 μM test compound, 37° C. How it is done:
(§1) Metabolic (Microsomal) Stability Assay: The metabolic degradation of the test compound is assayed at 37° C. with pooled liver microsomes (mouse (MLM), rat (RLM) or human (HLM)). The final incubation volume of 74 μL per time point contains TRIS buffer (pH 7.5; 0.1 M), magnesium chloride (6.5 mM), microsomal protein (0.5 mg/mL for mouse/rat, 1 mg/mL for human specimens) and the test compound at a final concentration of 1 μM. Following a short preincubation period at 37° C., the reactions are initiated by addition of 8 μL beta-nicotinamide adenine dinucleotide phosphate, reduced form (NADPH, 10 mM) and terminated by transfering an aliquot into solvent after different time points. Additionally, the NADPH-independent degradation is monitored in incubations without NADPH, terminated at the last time point by addition of acetonitrile. The quenched incubations are pelleted by centrifugation (1811 g, 5 min). An aliquot of the supernatant is assayed by LC-MS/MS for the amount of parent compound. In vitro intrinsic clearance (CLint, in vitro) is calculated from the time course of the disappearance of the test drug during the microsomal incubation. Each plot is fitted to the first-order elimination rate constant as C(t)=C0*exp(−ke*t), where C(t) and C0 are the concentration of unchanged test drug at incubation time t and that at preincubation and ke is the disappearance rate constant of the unchanged drug. Subsequently, CLint, in vitro (μL min^−1·amount protein) values are converted to CLint, in vitro (mL min^−1·kg^−1) for the whole body. CLint, in vitro data are scaled up using physiological parameters. For better across species comparison the predicted clearance is expressed as percent of the liver blood flow [% QH] in the individual species. In general, high stability (corresponding to low % QH) of the compounds across species is desired.

Data set [2] in a line: Metabolic (microsomal) stability assay, rat liver microsomes (RLM). Type of data set: in vitro ADME. The following applies: 1 μM test compound, 37° C. As to the method:
as §1

The target in a further data set is CYP3A4 (Homo sapiens (Human), UniProt P08684). Put plainly: Time dependent inhibition of CYP3A4 assay (TDI 3A4). The following applies: hydroxy-midazolam formation after 30 min relative to 0 min preincubation; 25 uM compound; human liver microsomes; midazolam substrate. The data set is classed as in vitro ADME. As to the method: Time Dependent Inhibition of CYP3A4 Assay (TDI 3A4):
After preincubation, the incubate is diluted 1:10 and the substrate midazolam is added for the main incubation (15 min). The main incubation is quenched with acetonitrile and the formation of hydroxy-midazolam is quantified via LC/MS-MS. The formation of hydroxy-midazolam from the 30 min preincubation relative to the formation from the 0 min preincubation is used as a readout. Values of less than 100% mean that the substrate midazolam is metabolized to a lower extend upon 30 min preincubation compared to 0 min preincubation. In general low effects upon 30 min preincubation are desired (corresponding to values close to 100%)

A short description of data set [3]: Metabolic (microsomal) stability assay, human liver microsomes (HLM). The data set is classed as in vitro ADME. Particulars: 1 μM test compound, 37° C. As to the method:
as §1

For data set [4], the target named is protein-protein interaction between SOS1 and KRAS G12D (Homo sapiens (Human), UniProt Q07889). Nature of the data set: KRAS::SOS1 AlphaScreen Binding Assay. In outline: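 Nucleotide-exchange interaction read by AlphaScreen (GSH acceptor / streptavidin donor beads, 10 μg/mL each): 10 nM KRAS G12D(1-169)-Avi, 10 μM GDP, 5 nM GST-SOS1(564-1049), 1% DMSO. Compound preincubated 30 min, then beads 60 min at RT in the dark; 11-point 1:5 series from 100 μM, duplicates; IC50 by 4-parameter logistic fit.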

The mark [5] stands for this setting: Table 20, KRAS::SOS1 AlphaScreen (SOS1 / KRAS G12D).
[6] abbreviates: KRAS G12D::SOS1 AlphaScreen, measured without EDTA unless marked with an asterisk.

Consider five molecules from patent US10829487B2, “Benzylamino substituted pyridopyrimidinones and derivatives as SOS1 inhibitors” (Boehringer Ingelheim International GmbH, priority 2017, dated 2020).

Molecules are shown by their SMILES.

protein-protein interaction between SOS1 and KRAS G12D, sequence (Q07889 564-1049, stated change not applied): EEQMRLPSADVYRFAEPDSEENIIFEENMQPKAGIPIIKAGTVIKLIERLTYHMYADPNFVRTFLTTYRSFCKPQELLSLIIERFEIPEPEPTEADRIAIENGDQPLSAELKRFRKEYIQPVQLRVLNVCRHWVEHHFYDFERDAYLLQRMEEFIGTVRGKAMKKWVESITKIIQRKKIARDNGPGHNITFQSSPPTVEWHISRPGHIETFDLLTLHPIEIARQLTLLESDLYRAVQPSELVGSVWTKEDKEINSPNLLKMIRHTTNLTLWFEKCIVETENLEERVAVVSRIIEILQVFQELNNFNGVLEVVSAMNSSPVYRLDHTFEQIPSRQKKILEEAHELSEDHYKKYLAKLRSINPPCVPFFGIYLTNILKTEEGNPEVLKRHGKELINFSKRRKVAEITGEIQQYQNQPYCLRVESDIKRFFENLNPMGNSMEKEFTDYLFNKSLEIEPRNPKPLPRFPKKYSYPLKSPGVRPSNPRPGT
CYP3A4, sequence (P08684 whole entry): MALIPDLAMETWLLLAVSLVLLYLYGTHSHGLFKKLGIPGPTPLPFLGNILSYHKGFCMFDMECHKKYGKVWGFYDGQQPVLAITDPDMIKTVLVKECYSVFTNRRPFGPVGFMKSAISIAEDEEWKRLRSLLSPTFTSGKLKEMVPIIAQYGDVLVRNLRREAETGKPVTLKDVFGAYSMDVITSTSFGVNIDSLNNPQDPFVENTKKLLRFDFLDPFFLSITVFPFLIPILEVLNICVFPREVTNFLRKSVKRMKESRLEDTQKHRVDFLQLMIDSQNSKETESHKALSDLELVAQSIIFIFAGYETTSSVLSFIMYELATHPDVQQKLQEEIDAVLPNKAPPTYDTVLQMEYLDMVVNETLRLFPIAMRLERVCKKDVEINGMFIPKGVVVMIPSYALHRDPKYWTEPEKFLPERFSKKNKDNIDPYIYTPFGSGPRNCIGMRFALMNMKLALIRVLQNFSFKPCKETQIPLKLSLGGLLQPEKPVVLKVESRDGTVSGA

Turning to `Cc1nc(N[C@H](C)c2cccc(C(F)F)c2F)c2cn(C3(C)CC3)c(=O)c(F)c2n1` [I-80], in data set [1], the “MLM [% QH]” value came out at 50 % QH. Also, in data set [2], the “RLM [% QH]” value is listed as under 23 % QH. Further, the “TDI 3A4 [%]” value at CYP3A4 is given as 86%. For the same molecule, the “HLM [% QH]” value in data set [3] was under 24 % QH. The molecule further showed an IC50 in data set [4] (setting [5]) of 9 nM.
As to `Cc1c(=O)n([C@@H]2C[C@H]2C(F)F)cc2c(N[C@H](C)c3cccc(C(F)F)c3F)ncnc12` [I-166], in data set [1], the “MLM [% QH]” value is 48 % QH. Besides, the “RLM [% QH]” value in data set [2] is 38 % QH. The “TDI 3A4 [%]” value on CYP3A4 came out at 87%. Besides, the “HLM [% QH]” value in data set [3] came out at 24 % QH. In addition, the IC50 in data set [4] (setting [6]) came out at 26 nM.
Take `Cc1c(=O)n(C23CC(C2)C3)cc2c(N[C@H](C)c3cccc(C(F)F)c3F)ncnc12` [I-169]: the “MLM [% QH]” value in data set [1] is 64 % QH. In addition, in data set [2], the “RLM [% QH]” value is on record as 44 % QH. For the same molecule, the “TDI 3A4 [%]” value on CYP3A4 stood at 84%. Moreover, in data set [3], the “HLM [% QH]” value is under 24 % QH. Further, in data set [4] (setting [6]), the IC50 worked out at 12 nM.
As for `Cc1nc(N[C@H](C)c2cccc(C(F)(F)F)c2F)c2cn(C3(C(F)F)CC3)c(=O)cc2n1` [I-98], the “MLM [% QH]” value in data set [1] is under 24 % QH. For the same molecule, the “RLM [% QH]” value in data set [2] is given as under 23 % QH. Besides, the “TDI 3A4 [%]” value on CYP3A4 came to 85%. Moreover, the “HLM [% QH]” value in data set [3] is on record as under 24 % QH. The IC50 in data set [4] (setting [5]) turned out to be 8 nM.
For `Cc1c(=O)n(C23CC(F)(C2)C3)cc2c(N[C@H](C)c3cccc(C(F)F)c3F)ncnc12` [I-170], the “MLM [% QH]” value in data set [1] came to 51 % QH. For the same molecule, in data set [2], the “RLM [% QH]” value is 37 % QH. Further, on CYP3A4, the “TDI 3A4 [%]” value is on record as 82%. Besides, the “HLM [% QH]” value in data set [3] was under 24 % QH. Besides, the half-inhibitory concentration (IC50) in data set [4] (setting [6]) was found to be 12 nM.
